Key:
[1] = Cell cytotoxicity assay, HUH7; type: cell-based; settings: human; Huh7 cells, 5 days at 37° C., XTT dye
Method: (§1) Cells were seeded 24 hours prior to compound addition. Each test compound (serially diluted from 100 μM) was added to Huh7 (1.5×10^4 cells/well) or HepG2 (1.5×10^4 cells/well), and allowed to incubate for 5 days at 37° C. A medium only control was used to determine the minimum absorbance value and an untreated cell value. At the end of the growth period, XTT dye from Polysciences Europe GmbH was added to each well. The absorbance at 450 nm with a reference wavelength of 600 nm was read with a Sunrise (Tecan) using the medium only control wells as blanks. The 50% inhibition value (CC50) was determined by comparing the degree of inhibition (compared to cell control) plotted against compound concentration. Results from the dilution series were fitted to a sigmoidal dose-response curve.
(§2) Compounds of the invention were evaluated in these assays to assess the stability in human intestinal S9 fraction (HIS9) and human liver S9 fraction (HLS9), and for Cell Cytotoxicity in HUH7, HEP3B and HEPG2 cells.

[2] = Cell cytotoxicity assay, HEP3B; type: cell-based; settings: human, HEP3B cells
Method: as §1, §2

[3] = Cell cytotoxicity assay, HEPG2; type: cell-based; settings: human; HepG2 cells, 5 days at 37° C., XTT dye
Method: as §1, §2

[4] = Stability in human liver S9 fraction (HLS9); type: in vitro ADME; settings: liver S9 fraction, pH 7.4; human liver S9 0.4 mg protein/mL, 5 μM test compound, 37° C.
Method: (§3) Stability in Human Intestinal S9 Fraction (HIS9) and in Human Liver S9 Fraction (HLS9),
(§4) Stock solutions of each test compound (10 mM) were prepared in DMSO and stored at −20° C. Prior to the start of the experiment, the test compounds were diluted to 500 μM in 50% acetonitrile in water. The reaction mixture was prepared in a total volume of 250 μL containing 5 mM MgC2, 1 mM NADPH and 5 μM test compound in 50 mM potassium phosphate buffer (pH 7.4). The reaction was initiated by addition of human liver or intestinal S9 fraction with a final concentration of 0.4 mg protein/mL (Xeno Tech). The reaction mixture was incubated on an orbital shaker at 37° C. At the desired time points (0, 10, 30 and 60 minutes) aliquots of 50 μL were taken and the reaction was stopped by mixing with 150 μL acetonitrile containing internal standard. Standard solutions of each test compound were prepared from the 500 μM solution by diluting the solution to a final concentration of 5 μM in boiled human S9 (0.4 mg protein/mL), 5 mM MgCl2 and 50 mM potassium phosphate buffer (pH 7.4). The standards and samples were kept on ice for 30 min then centrifuged at 3 000 g for 20 minutes at 10° C., there after 10 μL of supernatant was mixed with 200 μL 50% acetonitrile in water. 0.5 μM of each test compound in 50% acetonitrile in water was injected into the LC/MS-MS to determine the daughter ion, declustring potential (DP), collision energy (CE) and collision cell exit potential (CXP) in order to develop a LC/MS-MS method. The compounds were separated using a C18 column with a QTRAP5500 system. The mobile phase consisted of solvent A (98% water, 2% acetonitrile, 0.1% acetic acid or 10 mM ammonium acetate) and solvent B (80% acetonitrile, 20% water, 0.1% acetic acid or 10 mM ammonium acetate). Elution of the compounds was performed by using a gradient of solvent B from 0% to 100%. 5 μL of standard points and samples were injected for analysis with QTRAP5500.
(§5) The amount of parent compound was determined on the basis of the peak area for each time point compared to standard which was set to 5 μM. Intrinsic clearance (CLint) and half-life (t1/2) were determined from the disappearance curves of the test compound using Excel software.

[5] = Stability in human intestinal S9 fraction (HIS9); type: in vitro ADME; settings: human intestinal S9 0.4 mg protein/mL, 5 μM test compound, 37° C.
Method: as §3, §4, §5

HIV = settings: relative to 3TC; cited from earlier work
HBV in Hep G2.2.15 cells = settings: cited from earlier work

**Q.** Which CC50 at 5 days [1] does the source give for `COC(=O)[C@H](C)NP(=O)(OC[C@H]1OC[C@@H](n2ccc(N)nc2=O)O1)Oc1ccc(Br)cc1` (single isomer, unassigned) [27 dia-2] here?
**A.** 1020 nM

**Q.** What about the CC50 at 5 days [2] of the same compound?
**A.** 348 nM

**Q.** What about the CC50 at 5 days [3] of the same compound?
**A.** 223 nM

**Q.** What about the microsomal CLint at 5 μM [4] of the same compound?
**A.** 57 µL/min/mg

**Q.** And the “CLint Intestinal S9” value [5]?
**A.** 6 µL/min/mg

**Q.** What does the source list for `CCC[C@H](C)OC(=O)[C@H](C)NP(=O)(OC[C@H]1OC[C@@H](n2cc(F)c(N)nc2=O)O1)Oc1cccc(C2CC2)c1` (single isomer, unassigned) [29 dia-2]?
**A.** CC50 at 5 days [1]: 495 nM; CC50 at 5 days [2]: 75 nM; microsomal CLint at 5 μM [4]: 36 µL/min/mg; microsomal CLint at 5 μM ([5]; intestinal S9 fraction, pH 7.4): 18 µL/min/mg

**Q.** For `COC(=O)[C@H](C)NP(=O)(OC[C@H]1OC[C@@H](n2ccc(N)nc2=O)O1)Oc1ccc(C2CC2)cc1` (single isomer, unassigned) [34 dia-2], which CC50 at 5 days [1] is on record?
**A.** 524 nM

**Q.** And the CC50 at 5 days [2]?
**A.** 210 nM

**Q.** And the CC50 at 5 days [3]?
**A.** 236 nM

**Q.** What about the microsomal CLint at 5 μM [4] of the same compound?
**A.** 64 µL/min/mg

**Q.** What about the “CLint Intestinal S9” value [5] of the same compound?
**A.** 6 µL/min/mg

**Q.** With `COC(=O)C(C)NP(=O)(OC[C@@H]1O[C@H](n2ccc(N)nc2=O)CS1)Oc1ccccc1` (stereo partly shown) [CF 1109] as the compound, how does the “fold less active against HIV than parent nucleoside 3TC” value (HIV) read?
**A.** ~250 fold

**Q.** And the “effectiveness against HBV compared with parent nucleoside 3TC” value (HBV in Hep G2.2.15 cells)?
**A.** virtually equally effective

**Q.** Which CC50 at 5 days [1] does the source give for `Nc1ccn([C@@H]2CO[C@H](CO)O2)c(=O)n1` [Troxacitabine, 4-amino-1-((2S,4S)-2-(hydroxymethyl)-1,3-dioxolan-4-yl)pyrimidin-2(1H)-one, reference compound] here?
**A.** 646 nM

**Q.** What about the CC50 at 5 days [2] of the same compound?
**A.** 279 nM

**Q.** And the CC50 at 5 days [3]?
**A.** 218 nM
